Measurements published in the supplement of paper PMC10307832.

Experiments:
Assay in all cases: relative viability (nuclei count vs DMSO), 5 days (fraction); higher = more cells survive
Decitabine + Dasatinib = compound: Nc1ncn([C@H]2C[C@H](O)[C@@H](CO)O2)c(=O)n1 [Decitabine] + Cc1nc(Nc2ncc(C(=O)Nc3c(C)cccc3Cl)s2)cc(N2CCN(CCO)CC2)n1 [Dasatinib] (partner 0.075 µM)
Summary of the method: (§1)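 Cells from lung cancer lines were seeded into 1536-well plates and, one day later, dosed by pin tool. Treatments were either a single drug or a fixed dose of an anchor drug with five library-drug doses (not always all listed) in √10 steps. After 5 days, nuclei were stained in a one-step fixation (final 0.05% Triton X-100, 1% formaldehyde, 1 ug/ml Hoechst) and counted on 4× images, and relative viability is the treated-to-vehicle nuclei ratio, as the median of duplicate plates.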

Decitabine + Navitoclax = compound: Nc1ncn([C@H]2C[C@H](O)[C@@H](CO)O2)c(=O)n1 [Decitabine] + CC1(C)CCC(c2ccc(Cl)cc2)=C(CN2CCN(c3ccc(C(=O)NS(=O)(=O)c4ccc(N[C@H](CCN5CCOCC5)CSc5ccccc5)c(S(=O)(=O)C(F)(F)F)c4)cc3)CC2)C1 [Navitoclax] (partner 0.5 µM)
Summary of the method: as §1

Cediranib + Olaparib = compound: COc1cc2c(Oc3ccc4[nH]c(C)cc4c3F)ncnc2cc1OCCCN1CCCC1 [Cediranib] + O=C(c1cc(Cc2n[nH]c(=O)c3ccccc23)ccc1F)N1CCN(C(=O)C2CC2)CC1 [Olaparib] (partner 8 µM)
Summary of the method: as §1

Cediranib + Pemetrexed = compound: COc1cc2c(Oc3ccc4[nH]c(C)cc4c3F)ncnc2cc1OCCCN1CCCC1 [Cediranib] + Nc1nc2[nH]cc(CCc3ccc(C(=O)N[C@@H](CCC(=O)O)C(=O)O)cc3)c2c(=O)[nH]1 [Pemetrexed] (partner 0.2 µM)
Summary of the method: as §1

Cell Line | relative viability (Decitabine + Dasatinib; first compound 0.04 µM) | relative viability (Decitabine + Dasatinib; first compound 0.1265 µM) | relative viability (Decitabine + Dasatinib; first compound 0.4 µM) | relative viability (Decitabine + Dasatinib; first compound 1.265 µM) | relative viability (Decitabine + Dasatinib; first compound 4 µM) | relative viability (Decitabine + Navitoclax; first compound 0.04 µM) | relative viability (Decitabine + Navitoclax; first compound 0.1265 µM) | relative viability (Decitabine + Navitoclax; first compound 0.4 µM) | relative viability (Decitabine + Navitoclax; first compound 1.265 µM) | relative viability (Decitabine + Navitoclax; first compound 4 µM) | relative viability (Cediranib + Olaparib; first compound 0.04 µM) | relative viability (Cediranib + Olaparib; first compound 0.1265 µM) | relative viability (Cediranib + Olaparib; first compound 0.4 µM) | relative viability (Cediranib + Olaparib; first compound 1.265 µM) | relative viability (Cediranib + Olaparib; first compound 4 µM) | relative viability (Cediranib + Pemetrexed; first compound 0.04 µM) | relative viability (Cediranib + Pemetrexed; first compound 0.1265 µM) | relative viability (Cediranib + Pemetrexed; first compound 0.4 µM) | relative viability (Cediranib + Pemetrexed; first compound 1.265 µM) | relative viability (Cediranib + Pemetrexed; first compound 4 µM)
NCI-H322M | 0.246 | 0.327 | 0.299 | 0.285 | 0.349 | 0.841 | 0.892 | 0.777 | 0.505 | 0.509 | 0.857 | 0.757 | 0.618 | 0.783 | 0.762 | 0.64 | 0.684 | 0.592 | 0.648 | 0.572
NCI-H1666 | 0.773 | 0.735 | 0.684 | 0.636 | 0.617 | 0.85 | 0.776 | 0.687 | 0.465 | 0.487 | 0.737 | 0.716 | 0.719 | 0.696 | 0.726 | 0.889 | 0.962 | 0.898 | 0.912 | 0.841
A-427 | 0.51 | 0.341 | 0.214 | 0.196 | 0.206 | 0.674 | 0.578 | 0.365 | 0.255 | 0.191 | 0.802 |  | 0.668 | 0.67 | 0.753 | 0.921 |  | 0.955 | 0.962 | 1.08
NCI-H1651 | 0.418 | 0.506 | 0.398 | 0.341 | 0.385 | 0.893 | 1.03 | 0.958 | 0.684 | 0.876 | 0.189 | 0.18 | 0.179 | 0.166 | 0.185 | 0.601 | 0.619 | 0.592 | 0.497 | 0.53
NCI-H1793 | 0.347 | 0.394 | 0.382 | 0.246 | 0.239 | 0.356 | 0.406 | 0.333 | 0.227 | 0.169 | 0.953 | 1.07 | 0.762 | 0.718 | 1.13 | 0.822 | 0.991 | 0.693 | 0.568 | 1.14
NCI-H520 | 0.263 | 0.242 | 0.217 | 0.239 | 0.19 | 0.941 | 0.804 | 0.615 | 0.819 | 0.467 | 0.365 | 0.353 | 0.355 | 0.298 | 0.3 | 0.668 | 0.789 | 0.623 | 0.602 | 0.563
201T | 0.567 | 0.595 | 0.578 |  | 0.517 | 1.16 | 1.14 | 1.27 | 1.13 | 1.1 | 0.805 | 0.862 | 0.808 | 0.829 | 0.828 | 0.344 | 0.314 | 0.327 | 0.359 | 0.355
NCI-H460 | 0.453 | 0.682 | 0.341 | 0.239 | 0.183 | 0.974 | 1.03 | 0.612 | 0.292 | 0.198 | 0.53 | 0.411 | 0.403 | 0.424 | 0.362 | 0.0716 | 0.0662 | 0.0685 | 0.0585 | 0.0931
NCI-H596 | 0.59 | 0.585 |  | 0.508 | 0.435 | 0.912 | 0.868 | 0.638 | 0.688 | 0.587 | 0.798 | 0.8 | 0.721 | 0.99 | 0.731 | 0.472 | 0.499 | 0.427 | 0.476 | 0.525
HARA | 0.311 | 0.261 | 0.232 | 0.257 | 0.138 | 0.9 | 0.66 | 0.568 | 0.512 | 0.399 | 0.626 | 1.22 | 0.675 | 1.01 | 0.692 | 0.194 | 0.248 | 0.28 | 0.303 | 0.299
NCI-H2170 | 0.528 | 0.502 | 0.461 | 0.269 | 0.228 | 0.402 | 0.338 | 0.382 | 0.238 | 0.204 | 0.575 |  | 0.533 | 0.598 | 0.726 | 0.295 |  | 0.233 | 0.264 | 0.258
NCI-H2126 | 0.603 | 0.547 | 0.429 | 0.421 | 0.376 | 0.777 | 0.787 | 0.548 | 0.491 | 0.574 | 0.944 | 0.92 | 0.912 | 0.802 | 0.957 | 0.701 | 0.595 | 0.627 | 0.725 | 0.748
HCC-827 | 0.139 | 0.317 | 0.325 | 0.284 | 0.267 |  | 0.471 | 0.404 | 0.269 | 0.939 | 0.466 | 0.62 | 0.661 | 0.617 | 0.646 | 0.31 | 0.235 | 0.231 | 0.259 | 0.259
BEN | 0.373 | 0.406 | 0.225 | 0.251 | 0.218 | 0.0613 | 0.0587 | 0.0516 | 0.0522 | 0.0591 | 1.11 | 0.613 | 1.05 | 1.13 | 1.04 | 0.921 | 0.549 | 0.693 | 0.501 | 0.786
ChaGo-K-1 | 0.467 | 0.549 | 0.311 | 0.329 | 0.346 | 0.681 | 0.762 | 0.479 | 0.611 | 0.565 | 0.403 | 0.307 | 0.403 | 0.424 | 0.41 | 0.262 | 0.261 | 0.297 | 0.252 | 0.263
NCI-H23 | 0.689 | 0.653 | 0.356 | 0.271 | 0.192 | 0.558 | 0.45 | 0.305 | 0.21 | 0.224 | 0.373 | 0.326 | 0.277 | 0.323 | 0.342 | 0.602 | 0.693 | 0.525 | 0.692 | 0.699
